For data set [1], the system named is ChAT activity in spinal cord cultures. As to the kind of experiment: Effect of indolocarbazole esters on ChAT activity in dissociated spinal cord cultures. The format is cell-based, rat. As to the method: The effect of indolocarbazole esters of the invention on ChAT activity was assayed in dissociated spinal cord cultures prepared from fetal rats. ChAT is the enzyme that catalyzes the synthesis of the neurotransmitter acetylcholine, and it is a specific biochemical marker for cholinergic neurons. In the spinal cord, the large majority of cholinergic neurons are motor neurons. Assay of this enzyme may thus be used as an indication of the effects of a factor (or factors) on the survival and/or differentiation of cholinergic neurons and/or regulation of this enzyme. The procedure used for the assay is that described in Example 6 of WO 94/02488. Fourteen esters were tested in the spinal cord ChAT assay to determine their relative efficacy, and the results are summarized in Table 4.

Data set [2] can be described thus: Solubility of the esters at 1 mg/ml in water and buffer solutions. As to conditions: for solubility in Tris buffer: 10 mM Tris buffer pH 9; for solubility in acetate buffer: 10 mM acetate buffer pH 4; for solubility in phosphate buffer: 10 mM phosphate buffer pH 7; for solubility in water: water (Solution 1).
Experimental: Indolocarbazole esters were dissolved in water, dimethylsulfoxide (DMSO) and the following buffer solutions to determine solubility and to observe conversion to indolocarbazole I-5. Samples were analyzed by HPLC using UV detection at 290 nm.
Solution 2 was a 10 mM acetate buffer at pH 4 which was prepared by weighing 0.68 g of sodium acetate 3H2O into 500 ml of water and adjusting the pH with acetic acid.
Solution 3 was a 10 mM phosphate buffer, pH 7, which was prepared by weighing 0.30 g of monobasic sodium phosphate and 0.36 g of dibasic sodium phosphate into 500 ml of water, stirring until completely dissolved, and adjusting the pH with hydrochloric acid.
Solution 4 was a 10 mM Tris buffer, pH 9, which was prepared by weighing 0.79 g of Tris (tris(hydroxymethyl)aminomethane hydrochloride) into 500 ml of water, stirring until completely dissolved, and adjusting the pH with sodium hydroxide.
Sample solutions were prepared by weighing 0.5-1 mg of the indolocarbazole ester into an amber 1.5 ml autosampler vial, to which the appropriate quantity of one of the buffer solutions was added, in order to achieve a final concentration of 1 mg/ml. The sample solutions were vortexed and sonicated for 10 minutes. Fifty μl aliquots were placed into 1.5 ml amber autosampler vials. The reaction was quenched at a selected time interval by addition of 450 μl DMSO to the vial.
Data set [3] is described as follows: In vitro metabolism of I-5 esters in rat plasma. It is filed as in vitro ADME. As to conditions: 5000 ng/mL, 37° C. As to the method: (§1) Freshly-collected plasma from male Sprague-Dawley rats and presumably-healthy drug-free male humans was pooled and immediately frozen. The plasma was kept frozen at −90° C. and each aliquot was thawed only once for use in incubations. Stock solutions of the indolocarbazole esters were prepared in DMSO and were used to prepare standard curves in plasma that had been boiled to two minutes. Boiled plasma was divided into 500 μL aliquots, mixed with an aliquot of the internal standard, and spiked with the respective stock indolocarbazole ester solutions to prepare the standard curve. Thawed plasma was divided into 500 μL aliquots, placed in screw-cap vials, mixed with internal standard, and spiked with stock solutions of the respective indolocarbazole esters to yield a nominal concentration of 5000 ng/mL.
(§2) Incubations were then performed at 37° C. in a shaking water bath for 0, 0.5, 1, 2, 5, 10, 15, 30, and 60 minutes and quenched by addition of 5 mL methylene chloride. All tubes (standards and experimentals) were extracted for 15 minutes by shaking, and centrifuged. The methylene chloride layer was removed, dried under a stream of nitrogen, and reconstituted in DMSO. Fifty μL of the reconstituted extracts were analyzed by reverse-phase HPLC with detection at 290 nm. The mobile phase and gradient conditions are given below: […]

Data set [4] is described as follows: In vitro metabolism of I-5 esters in human plasma. It is filed as in vitro ADME. As to conditions: 5000 ng/mL, 37° C. The method, then:
as §1, §2

Take `COC1(COC(=O)CN(C)C)CC2OC1(C)n1c3ccccc3c3c4c(c5c6ccccc6n2c5c31)C(=O)NC4.Cl` (stereo not shown) [Example 7, (I-5)-N,N-Dimethylglycinate Hydrochloride]: in data set [1], the “Spinal Cord ChAT Activity (% of Control) 500 nM” value is on record as 132 % of Control and the “Spinal Cord ChAT Activity (% of Control) 1000 nM” value was 151 % of Control. Moreover, in data set [2], the “solubility in Tris buffer” value is given as “not completely soluble”, the “solubility in acetate buffer” value was “completely soluble”, the “solubility in phosphate buffer” value is recorded as “not completely soluble” and the solubility in water result was “completely soluble”.
For `COC1(COC(=O)c2cccnc2)CC2OC1(C)n1c3ccccc3c3c4c(c5c6ccccc6n2c5c31)C(=O)NC4.Cl` (stereo not shown) [Example 5, (I-5)-Pyridine-3-carboxylate Hydrochloride], in data set [1], the “Spinal Cord ChAT Activity (% of Control) 500 nM” value is 137 % of Control and the “Spinal Cord ChAT Activity (% of Control) 1000 nM” value was 139 % of Control. The “increase of ChAT activity over control” value in data set [1] (10 μM) is “*This compound increases ChAT activity 169% over control at 10 μM”. In addition, in data set [2], the “solubility in Tris buffer” value was “not completely soluble”, the “solubility in acetate buffer” value is given as “not completely soluble”, the “solubility in phosphate buffer” value is given as “not completely soluble” and the solubility in water entry is “not completely soluble”.
As for `COC1(COC(=O)c2ccc[n+](C)c2)CC2OC1(C)n1c3ccccc3c3c4c(c5c6ccccc6n2c5c31)C(=O)NC4.[I-]` (stereo not shown) [Example 6, (I-5)-Pyridine-3-carboxylate Methiodide], in data set [1], the “Spinal Cord ChAT Activity (% of Control) 500 nM” value was 149 % of Control and the “Spinal Cord ChAT Activity (% of Control) 1000 nM” value is 150 % of Control. In data set [2], the “solubility in Tris buffer” value is on record as “not completely soluble”, the “solubility in acetate buffer” value is recorded as “not completely soluble”, the “solubility in phosphate buffer” value was “not completely soluble” and the solubility in water entry is “not completely soluble”.
Consider `COC1(COC(=O)C(C)N)CC2OC1(C)n1c3ccccc3c3c4c(c5c6ccccc6n2c5c31)C(=O)NC4.Cl` (stereo not shown) [Example 3, (I-5)-Alaninate Hydrochloride], for which, in data set [3], the “maximum rates of hydrolysis” value was “more extensively hydrolyzed”. Further, in data set [1], the “Spinal Cord ChAT Activity (% of Control) 500 nM” value was 151 % of Control and the “Spinal Cord ChAT Activity (% of Control) 1000 nM” value is reported as 132 % of Control. Besides, the “hydrolysis, conversion to indolocarbazole I-5” value (“hydrolysis, conversion” below) in data set [4] was “not detectable”. Besides, in data set [2], the “solubility in Tris buffer” value was “not completely soluble”, the “solubility in acetate buffer” value is recorded as “completely soluble”, the “solubility in phosphate buffer” value is “not completely soluble” and the solubility in water result is “completely soluble”.
Take `COC1(COC(=O)CN)CC2OC1(C)n1c3ccccc3c3c4c(c5c6ccccc6n2c5c31)C(=O)NC4.Cl` (stereo not shown) [Example 2, (I-5)-Glycinate Hydrochloride]: in data set [3], the “maximum rates of hydrolysis” value is recorded as “more extensively hydrolyzed”. Further, in data set [1], the “Spinal Cord ChAT Activity (% of Control) 500 nM” value is given as 157 % of Control and the “Spinal Cord ChAT Activity (% of Control) 1000 nM” value is reported as 151 % of Control.
For `COC1(COC(=O)C(C)(C)N)CC2OC1(C)n1c3ccccc3c3c4c(c5c6ccccc6n2c5c31)C(=O)NC4.Cl` (stereo not drawn) [Example 12, (I-5)-α-Aminoisobutyrate Hydrochloride], in data set [1], the “Spinal Cord ChAT Activity (% of Control) 500 nM” value is 155 % of Control and the “Spinal Cord ChAT Activity (% of Control) 1000 nM” value is on record as 150 % of Control. Also, in data set [2], the “solubility in Tris buffer” value is “not completely soluble”, the “solubility in acetate buffer” value is recorded as “completely soluble”, the “solubility in phosphate buffer” value is “not completely soluble” and the solubility in water result is reported as “completely soluble”.
In the case of `COC1(COC(=O)C(N)CCCCN)CC2OC1(C)n1c3ccccc3c3c4c(c5c6ccccc6n2c5c31)C(=O)NC4.Cl.Cl` (stereo not shown) [Example 1, (I-5)-Lysinate Dihydrochloride], in data set [1], the “Spinal Cord ChAT Activity (% of Control) 500 nM” value is 150 % of Control and the “Spinal Cord ChAT Activity (% of Control) 1000 nM” value is 153 % of Control. The “hydrolysis, conversion” value in data set [4] is recorded as “hydrolyzed rapidly”. Also, in data set [2], the “solubility in Tris buffer” value is on record as “completely soluble”, the “solubility in acetate buffer” value was “completely soluble”, the “solubility in phosphate buffer” value was “completely soluble” and the solubility in water entry is listed as “completely soluble”.
Consider `COC1(COC(=O)C(N)Cc2cnc[nH]2)CC2OC1(C)n1c3ccccc3c3c4c(c5c6ccccc6n2c5c31)C(=O)NC4.Cl.Cl` (stereo not shown) [Example 9, (I-5) Histidinate Dihydrochloride], for which, in data set [1], the “Spinal Cord ChAT Activity (% of Control) 500 nM” value is listed as 158 % of Control and the “Spinal Cord ChAT Activity (% of Control) 1000 nM” value is reported as 143 % of Control. Also, in data set [2], the “solubility in Tris buffer” value is given as “not completely soluble”, the “solubility in acetate buffer” value is “completely soluble”, the “solubility in phosphate buffer” value is “not completely soluble” and the solubility in water result is “completely soluble”.
Consider `COC1(COC(=O)C(N)CCC(=O)O)CC2OC1(C)n1c3ccccc3c3c4c(c5c6ccccc6n2c5c31)C(=O)NC4.Cl` (stereo not shown) [Example 13, (I-5)-Glutamate Hydrochloride], for which, in data set [1], the “Spinal Cord ChAT Activity (% of Control) 500 nM” value is listed as 168 % of Control and the “Spinal Cord ChAT Activity (% of Control) 1000 nM” value was 142 % of Control.
Take `COC1(COC(=O)CCC(=O)O)CC2OC1(C)n1c3ccccc3c3c4c(c5c6ccccc6n2c5c31)C(=O)NC4` (stereo not shown) [Example 4, (I-5)-Hydrogen Succinate]: in data set [1], the “Spinal Cord ChAT Activity (% of Control) 500 nM” value is 150 % of Control and the “Spinal Cord ChAT Activity (% of Control) 1000 nM” value is on record as 154 % of Control. Further, in data set [2], the “solubility in Tris buffer” value is listed as “not completely soluble”, the “solubility in acetate buffer” value is on record as “not completely soluble”, the “solubility in phosphate buffer” value was “not completely soluble” and the solubility in water entry is listed as “not completely soluble”.
As for `COC1(COC(=O)C(N)CCCNC(=N)N)CC2OC1(C)n1c3ccccc3c3c4c(c5c6ccccc6n2c5c31)C(=O)NC4.Cl.Cl` (stereo not shown) [Example 10, (I-5)-Argininate Dihydrochloride], in data set [3], the “hydrolysis of the ester linkage, liberation of indolocarbazole I-5” value was “complete prior to the first sampling period”. Also, in data set [1], the “Spinal Cord ChAT Activity (% of Control) 500 nM” value is given as 128 % of Control and the “Spinal Cord ChAT Activity (% of Control) 1000 nM” value is on record as 170 % of Control. Moreover, the “hydrolysis, conversion” value in data set [4] is given as “hydrolyzed rapidly”.
